This passage reports IC50 results from ChEMBL document CHEMBL5729675, “Sulfonamide compound or salt thereof” (2023).

The structures appear in SMILES notation.

In this assay the target is Ribonucleotide reductase (Homo sapiens, UniProt P23921+Q7LG56). The assay is described as follows: Human RNR Inhibition Effect: The inhibitory activity against the ribonucleotide reduction reaction (hereinafter referred to as RNR reaction) of the test compound was determined by measuring the formation of deoxycytidine diphosphate (hereinafter referred to as dCDP) from cytidine diphosphate (hereinafter referred to as CDP) by the following method.Human M1 subunit and human M2 subunit (mutant ….
Ribonucleotide reductase, sequence (P23921 whole entry, looked up): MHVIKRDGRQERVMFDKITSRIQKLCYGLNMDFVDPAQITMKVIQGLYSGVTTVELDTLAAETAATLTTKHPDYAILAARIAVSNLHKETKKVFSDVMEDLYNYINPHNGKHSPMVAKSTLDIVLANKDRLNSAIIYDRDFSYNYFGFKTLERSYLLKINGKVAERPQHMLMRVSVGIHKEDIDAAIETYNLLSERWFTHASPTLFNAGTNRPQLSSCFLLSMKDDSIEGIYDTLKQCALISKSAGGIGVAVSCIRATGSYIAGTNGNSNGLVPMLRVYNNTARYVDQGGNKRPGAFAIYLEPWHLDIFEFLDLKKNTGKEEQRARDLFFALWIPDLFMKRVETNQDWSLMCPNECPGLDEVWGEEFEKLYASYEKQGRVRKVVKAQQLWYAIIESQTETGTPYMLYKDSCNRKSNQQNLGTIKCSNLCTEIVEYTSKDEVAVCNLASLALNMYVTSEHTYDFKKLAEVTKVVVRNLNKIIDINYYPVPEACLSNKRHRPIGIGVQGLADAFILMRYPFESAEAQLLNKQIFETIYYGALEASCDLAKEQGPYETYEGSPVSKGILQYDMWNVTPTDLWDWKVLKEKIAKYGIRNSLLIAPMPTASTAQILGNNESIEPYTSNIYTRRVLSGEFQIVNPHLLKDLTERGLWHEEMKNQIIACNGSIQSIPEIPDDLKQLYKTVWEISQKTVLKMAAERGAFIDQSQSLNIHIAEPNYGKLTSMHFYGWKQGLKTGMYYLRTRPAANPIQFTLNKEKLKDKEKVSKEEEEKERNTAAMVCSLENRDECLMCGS
Ribonucleotide reductase, sequence (Q7LG56 whole entry, looked up): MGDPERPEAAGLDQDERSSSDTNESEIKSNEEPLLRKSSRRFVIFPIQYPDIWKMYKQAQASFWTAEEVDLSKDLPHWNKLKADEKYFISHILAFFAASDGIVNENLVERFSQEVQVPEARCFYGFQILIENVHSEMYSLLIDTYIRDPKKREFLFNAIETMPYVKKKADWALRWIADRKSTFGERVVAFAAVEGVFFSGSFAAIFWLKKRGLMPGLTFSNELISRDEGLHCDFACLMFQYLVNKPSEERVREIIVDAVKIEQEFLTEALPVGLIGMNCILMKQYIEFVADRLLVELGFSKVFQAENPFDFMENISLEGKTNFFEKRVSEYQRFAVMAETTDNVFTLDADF

`COc1cc(Cl)ccc1S(=O)(=O)N[C@H](c1n[nH]c(=O)o1)[C@H](C)c1c(F)ccc(-c2cn(C)nc2C)c1C` returned an IC50 of 280 nM.

For the molecule `Cc1ccc(F)c([C@@H](C)[C@H](NS(=O)(=O)c2cccc3c2OCCO3)c2n[nH]c(=O)o2)c1C`, the IC50 worked out at 330 nM.

In the case of `Cc1ccc(F)c([C@@H](C)[C@H](NS(=O)(=O)c2ccc(Cl)c(C#N)n2)c2n[nH]c(=O)o2)c1C`, half-maximal inhibition (IC50) required 160 nM.

In turn, `Cc1ccc(F)c([C@@H](C)[C@H](NS(=O)(=O)c2ccc(Cl)c(C(N)=O)n2)c2n[nH]c(=O)o2)c1C` showed an IC50 of 100 nM.

Molecule `COc1cc(N)ccc1S(=O)(=O)N[C@H](c1n[nH]c(=O)o1)[C@H](C)c1c(F)ccc2ccccc12` came in with an IC50 of 260 nM.

Regarding `Cc1ccc(F)c([C@@H](C)[C@H](NS(=O)(=O)c2ccc3[nH]c(=O)c(=O)[nH]c3c2)c2n[nH]c(=O)o2)c1C`, the IC50 is 820 nM.

Turning to `Cc1ccc(F)c([C@@H](C)[C@H](NS(=O)(=O)c2ccc(Cl)c(C(=O)N3CCOCC3)n2)c2n[nH]c(=O)o2)c1C`, the IC50 came to 60 nM.

In turn, `Cc1ccc(F)c([C@@H](C)[C@H](NS(=O)(=O)c2ccc(Cl)cc2OC(F)F)c2n[nH]c(=O)o2)c1C` displayed an IC50 of 260 nM.

For the molecule `COC(=O)c1c(F)ccc(S(=O)(=O)N[C@H](c2n[nH]c(=O)o2)[C@H](C)c2c(F)ccc(C)c2C)c1F`, half-maximal inhibition (IC50) was put at 170 nM.

`C[C@H](c1cccc2c1CCC2)[C@H](NS(=O)(=O)c1ccc(Cl)c(C(C)(C)O)n1)c1n[nH]c(=O)o1` displayed an IC50 of 440 nM.

As to `COc1cc(Cl)ccc1S(=O)(=O)N[C@H](c1noc(=O)[nH]1)[C@H](C)c1c(F)ccc(C)c1C`, the IC50 was 250 nM.

For `CCN1CCOc2c(S(=O)(=O)N[C@H](c3n[nH]c(=O)o3)[C@H](C)c3c(F)ccc(C)c3C)ccc(Cl)c21`, the IC50 came out at 110 nM.

On to `C[C@H](c1cccc2c1CCCC2)[C@H](NS(=O)(=O)c1ccc(N)cc1)c1n[nH]c(=O)o1`, for which it took 850 nM to reach half-maximal inhibition (IC50).

Molecule `Cc1ccc(F)c([C@@H](C)[C@H](NS(=O)(=O)c2ccc(Cl)cc2C(=O)N(C)C)c2n[nH]c(=O)o2)c1C` registered an IC50 of 500 nM.

`COc1cc(Br)ccc1S(=O)(=O)N[C@H](c1n[nH]c(=O)o1)[C@H](C)c1cccc2c1CCC2` registered an IC50 of 590 nM.

The molecule `Cc1ccc(F)c([C@@H](C)[C@H](NS(=O)(=O)c2ccc3[nH]c(=O)[nH]c3c2)c2n[nH]c(=O)o2)c1C` returned a 50% inhibitory concentration (IC50) of 830 nM.

The molecule `CCc1ccc(F)c([C@@H](C)[C@H](NS(=O)(=O)c2ccc(Cl)c(C(C)O)c2OC)c2n[nH]c(=O)o2)c1C` (stereo partly drawn) came in with an IC50 of 150 nM.

`Cc1ccc(F)c([C@@H](C)[C@H](NS(=O)(=O)c2ccc(C3CC3)cc2C(N)=O)c2n[nH]c(=O)o2)c1C` gave an IC50 of 130 nM.

Regarding `Cc1c(Cl)ccc(F)c1[C@@H](C)[C@H](NS(=O)(=O)c1ncc(Cl)cc1C(N)=O)c1n[nH]c(=O)o1`, 100 nM corresponded to half-maximal inhibition (IC50).

In turn, `COc1cc(C(N)=O)c(S(=O)(=O)N[C@H](c2n[nH]c(=O)o2)[C@H](C)c2c(F)ccc(C)c2C)cc1OC` returned an IC50 of 360 nM.

Molecule `Cc1ccc(F)c([C@@H](C)[C@H](NS(=O)(=O)c2ccc(Cl)c(C(=O)N3CCC(N)C3)n2)c2n[nH]c(=O)o2)c1C` (stereo partly drawn) registered an IC50 of 150 nM.

For `COc1cc(C#N)ccc1S(=O)(=O)N[C@H](c1n[nH]c(=O)o1)[C@H](C)c1c(F)ccc(C)c1C`, the IC50 came out at 90 nM.

The molecule `CC(=O)N1CCOc2c(S(=O)(=O)N[C@H](c3n[nH]c(=O)o3)[C@H](C)c3cccc(C)c3C)ccc(Cl)c21` yielded an IC50 of 560 nM.

For `Cc1ccc(F)c([C@@H](C)[C@H](NS(=O)(=O)c2cc3c(cc2C(N)=O)OCCO3)c2n[nH]c(=O)o2)c1C`, the IC50 was 90 nM.

In turn, `Cc1ccc(F)c([C@@H](C)[C@H](NS(=O)(=O)c2ccc3c(c2)CC(=O)N3)c2n[nH]c(=O)o2)c1C` returned an IC50 of 740 nM.

Molecule `CC(=O)OC1(C(F)(F)F)CCOc2c(S(=O)(=O)N[C@H](c3n[nH]c(=O)o3)[C@H](C)c3c(F)ccc(C)c3C)ccc(Cl)c21` (stereo partly drawn) showed an IC50 of 110 nM.

Consider `Cc1ccc(F)c([C@@H](C)[C@H](NS(=O)(=O)c2ccc3[nH]nnc3c2)c2n[nH]c(=O)o2)c1C`, for which the IC50 was 660 nM.

As for `Cc1ccc(F)c([C@@H](C)[C@H](NS(=O)(=O)c2ccc3[nH]ncc3c2)c2n[nH]c(=O)o2)c1C`, the half-maximal inhibitory concentration (IC50) came to 410 nM.

On to `Cc1ccc(F)c([C@@H](C)[C@H](NS(=O)(=O)c2ccc(Cl)cc2C(N)=O)c2n[nH]c(=O)o2)c1Cl`, for which the IC50 worked out at 500 nM.

As for `Cc1ccc(F)c([C@@H](C)[C@H](NS(=O)(=O)c2cc(C(C)(C)O)c(F)cc2C(N)=O)c2n[nH]c(=O)o2)c1C`, the IC50 came out at 80 nM.

For `CC(=O)OC1(C)CCOc2c(S(=O)(=O)N[C@H](c3n[nH]c(=O)o3)[C@H](C)c3c(F)ccc(Cl)c3C)ccc(Cl)c21` (stereo partly drawn), the IC50 amounted to 300 nM.

Take `Cc1ccc(F)c([C@@H](C)[C@H](NS(=O)(=O)c2cccc3c2OCCN3C(=O)C2CC2)c2n[nH]c(=O)o2)c1C`: 290 nM corresponded to half-maximal inhibition (IC50).

The molecule `Cc1ccc(S(=O)(=O)N[C@H](c2n[nH]c(=O)o2)[C@H](C)c2c(F)ccc3ccccc23)c(C(N)=O)c1` had an IC50 of 170 nM.

`COc1cc(Cl)ccc1S(=O)(=O)N[C@H](c1n[nH]c(=O)o1)[C@H](C)c1c(F)ccc(-c2cnn(C3CC3)c2)c1C` yielded an IC50 of 220 nM.

With `Cc1ccc(F)c([C@@H](C)[C@H](NS(=O)(=O)c2cccc3c2OC(C)(C)CC3=O)c2n[nH]c(=O)o2)c1C`, the IC50 worked out at 240 nM.

`Cc1c(Br)ccc(F)c1[C@@H](C)[C@H](NS(=O)(=O)c1ncc(Cl)cc1C(N)=O)c1n[nH]c(=O)o1` came in with an IC50 of 60 nM.

As to `Cc1ccc(F)c([C@@H](C)[C@H](NS(=O)(=O)c2ccc3c(c2)CCCO3)c2n[nH]c(=O)o2)c1C`, half-maximal inhibition (IC50) was put at 320 nM.

`Cc1c(Cl)ccc(F)c1[C@@H](C)[C@H](NS(=O)(=O)c1ccc(Cl)cc1C(N)=O)c1n[nH]c(=O)o1` displayed an IC50 of 250 nM.

Turning to `Cc1ccc(F)c([C@@H](C)[C@H](NS(=O)(=O)c2c(F)cc(Cl)cc2F)c2n[nH]c(=O)o2)c1C`, 270 nM corresponded to half-maximal inhibition (IC50).

On to `COC(=O)c1cc(S(=O)(=O)N[C@H](c2n[nH]c(=S)o2)[C@H](C)c2cccc3c2CCC3)ccc1Cl`, for which the IC50 was found to be 830 nM.

`COc1cc(Cl)ccc1S(=O)(=O)N[C@H](c1n[nH]c(=O)o1)[C@H](C)c1c(F)ccc2ccccc12` yielded an IC50 of 200 nM.

`Cc1ccc(F)c([C@@H](C)[C@H](NS(=O)(=O)c2ccc(Cl)c3c2OCCC3N)c2n[nH]c(=O)o2)c1C` (stereo partly drawn) displayed an IC50 of 130 nM.

With `Cc1ccc(F)c([C@@H](C)[C@H](NS(=O)(=O)c2ccc3c(c2)OCCO3)c2n[nH]c(=O)o2)c1C`, the IC50 was determined as 130 nM.

In turn, `COc1cc(Cl)ccc1S(=O)(=O)N[C@H](c1n[nH]c(=O)o1)[C@H](C)c1cccc(C)c1C(C)C` came in with an IC50 of 840 nM.

In the case of `Cc1ccc(F)c([C@@H](C)[C@H](NS(=O)(=O)c2ccc(Br)cc2C#N)c2n[nH]c(=O)o2)c1C`, inhibition was half-maximal at 200 nM (IC50).

Take `Cc1ccc(F)c([C@@H](C)[C@H](NS(=O)(=O)c2cc([N+](=O)[O-])c(Cl)cc2C(N)=O)c2n[nH]c(=O)o2)c1C`: the IC50 is 130 nM.

Regarding `Cc1ccc(S(=O)(=O)N[C@H](c2n[nH]c(=O)o2)[C@H](C)c2c(F)ccc(C)c2C)cc1`, the IC50 was 410 nM.

Take `Cc1ccc(F)c([C@@H](C)[C@H](NS(=O)(=O)c2cc(C(=O)N3CCOCC3)ccc2C(N)=O)c2n[nH]c(=O)o2)c1C`: the IC50 was 110 nM.

On to `COc1cc(Cl)ccc1S(=O)(=O)N[C@H](c1n[nH]c(=O)o1)[C@H](C)c1c(F)ccc(-c2cc(F)cc(F)c2)c1C`, for which the IC50 stood at 940 nM.

In turn, `Cc1ccc(F)c([C@@H](C)[C@H](NS(=O)(=O)c2ccc(Cl)c(C(=O)N3CCCC3)n2)c2n[nH]c(=O)o2)c1C` showed an IC50 of 60 nM.

`CC(=O)Nc1cc(Cl)ccc1S(=O)(=O)N[C@H](c1n[nH]c(=O)o1)[C@H](C)c1c(F)ccc(C)c1C` registered an IC50 of 440 nM.

In the case of `Cc1ccc(F)c([C@@H](C)[C@H](NS(=O)(=O)c2ccc(Cl)c3cccnc23)c2n[nH]c(=O)o2)c1C`, the midpoint of inhibition, the IC50, lay at 110 nM.

`Cc1ccc(F)c([C@@H](C)[C@H](NS(=O)(=O)c2cc(C(=O)N(C)C)ccc2C(N)=O)c2n[nH]c(=O)o2)c1C` came in with an IC50 of 140 nM.

Consider `COc1ccccc1-c1ccc(C(N)=O)c(S(=O)(=O)N[C@H](c2n[nH]c(=O)o2)[C@H](C)c2c(F)ccc(C)c2C)c1`, for which the IC50 amounted to 250 nM.

The molecule `Cc1ccc(F)c([C@@H](C)[C@H](NS(=O)(=O)c2ccc(Cl)c(C(=O)N3CC4CCC(C3)O4)n2)c2n[nH]c(=O)o2)c1C` displayed an IC50 of 30 nM.

Molecule `COc1ccc(-c2ccc(F)c([C@@H](C)[C@H](NS(=O)(=O)c3ccc(Cl)cc3OC)c3n[nH]c(=O)o3)c2C)cc1` had an IC50 of 300 nM.

`Cc1ccc(F)c([C@@H](C)[C@H](NS(=O)(=O)c2ccccc2C#N)c2n[nH]c(=O)o2)c1C` gave an IC50 of 640 nM.

The molecule `Cc1ccc(F)c([C@@H](C)[C@H](NS(=O)(=O)c2ccc(Cl)cc2C#N)c2n[nH]c(=O)o2)c1C` displayed an IC50 of 360 nM.

`C[C@H](c1cccc2c1CCCC2)[C@H](NS(=O)(=O)c1ccc(Cl)cn1)c1n[nH]c(=O)o1`: the IC50 turned out to be 770 nM.

Molecule `CCc1ccc(F)c([C@@H](C)[C@H](NS(=O)(=O)c2ccc(Cl)cc2C(N)=O)c2n[nH]c(=O)o2)c1C` gave an IC50 of 180 nM.

As for `COc1cc(Cl)ccc1S(=O)(=O)N[C@H](c1n[nH]c(=O)o1)[C@H](C)c1c(F)ccc(-c2cncnc2)c1C`, inhibition was half-maximal at 540 nM (IC50).

In turn, `Cc1ccc(F)c([C@@H](C)[C@H](NS(=O)(=O)c2cccc3c2CCNC3)c2n[nH]c(=O)o2)c1C` registered a half-maximal inhibitory concentration (IC50) of 760 nM.

On to `Cc1ccc(F)c([C@@H](C)[C@H](NS(=O)(=O)c2ccc(Cl)cc2C(C)O)c2n[nH]c(=O)o2)c1C` (stereo partly drawn), for which half-maximal inhibition (IC50) required 380 nM.

As for `CNC(=O)c1cc(Cl)ccc1S(=O)(=O)N[C@H](c1n[nH]c(=O)o1)[C@H](C)c1c(F)ccc(C)c1C`, the IC50 stood at 370 nM.

The molecule `Cc1cc(S(=O)(=O)N[C@H](c2n[nH]c(=O)o2)[C@H](C)c2c(F)ccc(C)c2C)c(C(N)=O)cc1Cl` showed an IC50 of 100 nM.

Molecule `CCc1cccc([C@@H](C)[C@H](NS(=O)(=O)c2ccc(Cl)cc2OC)c2n[nH]c(=O)o2)c1C` yielded a concentration for half-maximal inhibition (IC50) of 400 nM.

`Cc1c(C(F)(F)F)ccc(F)c1[C@@H](C)[C@H](NS(=O)(=O)c1ccc(Cl)cc1C(N)=O)c1n[nH]c(=O)o1` gave an IC50 of 550 nM.

The molecule `COc1c(S(=O)(=O)N[C@H](c2n[nH]c(=O)o2)[C@H](C)c2c(F)ccc(C)c2C)ncc(Cl)c1C(C)OC(C)=O` (stereo partly drawn) showed an IC50 of 430 nM.
